The values below come from PMC6073479, “Cecropin A Modulates Tight Junction-Related Protein Expression and Enhances the Barrier Function of Porcine Intestinal Epithelial Cells by Suppressing the MEK/ERK Pathway” (International Journal of Molecular Sciences, 2018).

Series [1] concerns TNF-α mRNA expression. Put plainly: qPCR of TNF-α mRNA in IPEC-J2 cells cocultured with E. coli. The series is classed as cell-based, porcine. The note with it: IPEC-J2 cells after coculture with E. coli, treatment for 48 h, compared to non-treated cells, n = 6. The protocol:
(§1) Total RNA was extracted using TRIzol reagent according to the manufacturer’s instructions. Concentration and purity of RNA was checked by using a NanoDrop 2000. cDNA was generated from 1 μg total RNA using a First Strand cDNA Synthesis Kit (Thermo Scientific, Waltham, MA, USA). Quantitative PCR (qPCR) was performed to quantify mRNA expression levels of IL-6, IL-8 and TNF-α relative to that of a housekeeping gene, glyceraldehyde-3-phosphate dehydrogenase (GAPDH) by using SYBR Green mix (ABI) according to the manufacturer’s instructions.

For series [2], the system named is IPEC-J2 cell monolayer. Put plainly: FITC-dextran paracellular permeability assay. The series is classed as cell-based, porcine. The note with it: 12.5 μg/mL; 48 h and 72 h; FITC-dextran 5 mg/mL apical, 2 h; fluorescence 480/520 nm; p < 0.05; n = 6. The protocol:
To evaluate the permeability of the monolayer intestinal cells, FITC-dextran was used. FITC-dextran (Sigma-Aldrich, St. Louis, MO, USA) was dissolved in PBS at 5 mg/mL. After the medium was discarded, 200 μL FITC-dextran was added to the apical compartment, and 500 μL PBS was added to the basal compartment and cultured for 2 h. Then, 100 μL liquid from each well was transferred to 96-well plates, and the […] was read at 480 nm excitation and 520 nm emission wavelengths. Then, the content of the FITC-dextran in the basal compartment was calculated using a standard curve.

In series [3] the test system is IL-8 mRNA expression. Put plainly: qPCR of IL-8 mRNA in IPEC-J2 cells cocultured with E. coli. Type of series: cell-based, porcine. The following applies: IPEC-J2 cells after coculture with E. coli, treatment for 48 h, compared to non-treated cells, n = 6. The protocol: as §1
A general note: In qPCR the cycle at which signal appears reflects the starting amount.

The test system of series [4] is IPEC-J2 cells. The note with it: MTT; 1.5–12.5 μg/mL, 8 h; compared to control group.
Description: IPEC-J2 cells were cultured at 37 °C in 100% humidity and 5% CO2 conditions with DMEM/F12 (Thermo, Waltham, MA, USA) supplemented with 5% fetal bovine serum (Gibco, Waltham, MA, USA) and 1% penicillin/streptomycin.
Thiazolyl blue tetrazolium bromide (MTT) was purchased from Sigma-Aldrich (St. Louis, MI, USA). The MTT was dissolved in PBS (5 mg/mL). The cytotoxicity of AMPs to IPEC-J2 cells was tested by using an MTT assay. A density of 1 × 10^5 cells in 180 μL medium per well was seeded in 96-well plates (Corning, New York, NY, USA), and then 20 μL AMPs was added. The final concentrations were 200, 100, 50, 25, 12.5, 6.25, 3.125, were 1.56 μg/mL. After 8 h culture, 20 μL MTT was added, and then the cells were continued to culture for 4 h. The supernatant was discarded, and 150 μL DMSO was added. After 30 min shaking at room temperature, the absorbance was measured at a wavelength of 490 nm. The cell viability was calculated by using the following equation:Cell viability = (ODControl − ODAMP)/ODControl × 100%
For series [5], the system named is ZO-1, claudin-1 and occludin membrane distribution. Put plainly: Cell immunofluorescence of tight junction proteins. The series is classed as cell-based, porcine. The following applies: IPEC-J2 cells, 400×, n = 3. The protocol: (§2) To test the expression and location of tight junction proteins (ZO-1, occludin and claudin-1) and the cytoskeleton (F-actin), cell immunofluorescence was used. The IPEC-J2 cells were cultured and became confluent on the slide. After treatment, the cells were washed with PBS three times, fixed with 4% polyoxymethylene for 30 min, and then washed by PBS again three times. For F-actin staining, 0.5% Triton X-100 was added for 20 min. After that, 0.5% bovine serum albumin was added for 1 h, and then the primary antibodies were added and incubated with the cells at 4 °C overnight. The slides were then washed with PBST three times, and the FITC-labeled secondary antibody was added for 2 h. At last, the cell nuclei were stained by using DAPI (Santa Cruz Biotechnology, Dallas, TX, USA). The slides were then observed by using a fluorescence microscope. Primary antibodies including occludin (Abcam, Cambridge, UK), claudin-1 (CST, Danvers, MA, USA) and ZO-1 (Thermo Fisher Scientific, Waltham, MA, USA) were used. For staining F-actin, FITC-phalloidin (Sigma-Aldrich, St. Louis, MI, USA) was used.

Series [6] deals with CDX2 protein level. In words: Western blotting of CDX2. The note with it: IPEC-J2 cells, compared with control group, p < 0.001, n = 3. The series is classed as cell-based, porcine. The protocol: (§3) The total protein was extracted with lysis buffer. The concentration of protein was tested by using a BCA protein assay kit (Thermo Scientific, Waltham, MA, USA) and mixed with 5× loading buffer. 20 μg protein sample was loaded in each well. The supernatant was then separated by 10% SDS-PAGE and transferred onto a PVDF membrane (Millipore, Burlington, MA, USA). After blocking with 5% skimmed milk powder, the membrane was incubated with the appropriate primary antibodies overnight at 4 °C, followed by incubation with a horseradish peroxidase (HRP)-conjugated secondary antibody for 2 h. Bands were detected using an ECL Western Blotting Substrate (Thermo Scientific, Waltham, MA, USA). Band intensity was quantified using ImageJ software. The primary antibodies including β-actin, p-MEk, MEK, p-ERK, ERK, CDX2 were purchased from Cell Signaling Technology (CST, Danvers, MA, USA).
A general note: A western blot detects proteins with antibodies after separation by electrophoresis.

Series [7] relates to F-actin polymerization. Put plainly: Cell immunofluorescence of F-actin (FITC-phalloidin). The note with it: IPEC-J2 cells; FITC-phalloidin staining, 400×; n = 3. Type of series: cell-based, porcine. The protocol: as §2
Series [8] concerns claudin-1 protein expression. Put plainly: Western blotting of claudin-1. Type of series: cell-based, porcine. The following applies: IPEC-J2 cells, versus control group, n = 3. The protocol: as §3
Series [9] concerns IL-6 mRNA expression. In words: qPCR of IL-6 mRNA in IPEC-J2 cells cocultured with E. coli. Type of series: cell-based, porcine. The note with it: IPEC-J2 cells after coculture with E. coli, treatment for 48 h, compared to non-treated cells, n = 6. The protocol:
as §1

Series [10] has as its system occludin protein expression. In words: Western blotting of occludin. Type of series: cell-based, porcine. The note with it: IPEC-J2 cells, versus control group, n = 3. The protocol: as §3
Series [11] has as its system ERK phosphorylation. Put plainly: Western blotting of p-ERK(1/2)/ERK(1/2). Type of series: cell-based, porcine. The note with it: IPEC-J2 cells, versus control group, p < 0.01, n = 3. The protocol:
as §3

The test system of series [12] is IPEC-J2 cell monolayer. Put plainly: Transepithelial electrical resistance (TER) measurement. Type of series: cell-based, porcine. The protocol: To evaluate the barrier integrity of IPEC-J2 cells, the transepithelial resistance (TER) and was measured, and a permeability assay was performed. The initial TER was tested before the cells were seeded. IPEC-J2 cells were then seeded in a Transwell membrane insert ([…], 0.4 μm pore size, Corning) at a density of 7 × 10^5 cells/well. Then, 200 μL and 500 μL medium was added to the apical and basal compartments, respectively. Cecropin A (12.5 μg/mL) was added to the apical and basal compartments. The TER values were measured every day by using an ohm-meter fitted with chopstick electrodes (Millipore ESR-2; Burlington, MA, USA). Before each test, the plates were placed at room temperature for 30 min. The TER was calculated by using the following equation:TER (Ω·cm^2) = (TER − TERinitial) × 0.3

Series [13] relates to E. coli adherence to IPEC-J2 cells. Put plainly: Quantifying adherent bacteria (CFU). Type of series: cell-based, Escherichia coli. The note with it: n = 3. The protocol:
To calculate the number of adherent E. coli, E. coli were cocultured with IPEC-J2 cells in DMEM/high-glucose medium (no penicillin/streptomycin, no FBS). Then, the cells were washed with PBS six times and lysed with 1% Triton X-100 for 20 min at room temperature. Next, 5 μL lysates were plated on MacConkey agar plates overnight. The total number of bacteria was quantified as CFUs.

Series [14] relates to MEK phosphorylation. Put plainly: Western blotting of p-MEK/MEK. Type of series: cell-based, porcine. The note with it: IPEC-J2 cells, versus control group, p < 0.01, n = 3. The protocol:
as §3

The test system of series [15] is ZO-1 protein expression. In words: Western blotting of ZO-1. The note with it: IPEC-J2 cells, versus control group, n = 3. Type of series: cell-based, porcine. The protocol:
as §3

Series [16] concerns gram-negative bacterial strains, such as E. coli, Salmonella and Pseudomonas aeruginosa. In words: MIC/MBC test. The series is classed as cell-based. The note with it: gram-negative strains versus Staphylococcus aureus. The protocol:
The Escherichia coli ATCC 35401, ATCC 35150, ATCC 25922, and SSI 82000, Pseudomonas aeruginosa ATCC 9027 and ATCC 27853, Salmonella ATCC13312 and ATCC9120, Salmonella typhimurium ATCC 14028, and Staphylococcus aureus ATCC 29213 strains were purchased from Guangdong Culture Collection Center. The Escherichia coli W25K strain was isolated from a piglet with diarrhea as described previously. The strains were cultured in LB medium to logarithmic growth period (OD = 0.5) and then were transferred to Mueller-Hinton Broth (MHB) medium for the minimum inhibitory concentration (MIC) or minimum bactericidal concentration (MBC) test.
The MIC test was assessed according to the process of the Clinical and Laboratory Standards Institute. The bacterial strains were diluted with MHB medium, and the concentration was 5 × 10^5 CFU/mL. Then, 180 μL bacterial suspension was transferred to 96-well cell plates. […] Then, the bacteria were cultured at 37 °C for 8 h.

No end group written: not given here.

Turning to “KWKLFKKIEKVGQNIRDGIIKAGPAVAVVGQATQIAK-NH2 (C-terminus assumed) [cecropin A]”, in [1], the “TNF-α mRNA expression” value was “downregulated”. Also, the “permeability of the IPEC-J2 cell monolayer (4 kDa FITC-dextran in basal compartment)” value in series [2] is “reduces the permeability”. For the same molecule, in series [3], the “IL-8 mRNA expression” value is on record as “downregulated”. For the same molecule, the IPEC-J2 cell viability result in series [4] is “not reduced”. Besides, the “membrane distribution of ZO-1, claudin-1 and occludin (TJs)” value in series [5] is “much more polymerized at the cell–cell boundary”. Moreover, the CDX2 protein level entry in [6] was “upregulated”. Further, the “F-actin polymerization / distribution” value in series [7] is “much more polymerized at the cell–cell boundary”. The claudin-1 protein level entry in series [8] is given as “significantly upregulated”. For the same molecule, in series [9], the “IL-6 mRNA expression” value was “downregulated”. Also, the occludin protein level entry in series [10] is “significantly upregulated”. Also, the ERK phosphorylation result in series [11] is “downregulates”. For the same molecule, the TER values entry in series [12] (IPEC-J2 monolayer on Transwell, 12.5 μg/mL apical and basal, at 48 h and 72 h, compared to control cells, p < 0.01, n = 6) is “significantly increased”; in series [12] (inhibitor experiment (Figure 5), 24 and 48 h, compared with control group, n = 3), “significantly higher”. The “E. coli adherence (CFU of adherent bacteria)” value in series [13] (IPEC-J2 cells pretreated with 3.125, 6.25 and 12.5 μg/mL for 48 h) is listed as “reduced E. coli adherence in a dose-dependent manner”. Besides, the MEK phosphorylation entry in series [14] is “downregulates”. Besides, the ZO-1 protein level entry in [15] is reported as “significantly upregulated”. For the same molecule, in series [16], the “antibacterial activity against E. coli, Salmonella typhimurium and Pseudomonas aeruginosa compared with Staphylococcus aureus” value is listed as “much higher”.
Regarding `O=C(NOCC1CC1)c1ccc(F)c(F)c1Nc1ccc(I)cc1Cl` [PD184352], in series [13] (IPEC-J2 cells, inhibitor 10 μM for 48 h, compared to cecropin A group), the “adherence of E. coli” value is “reduced”.
